Reference: PubChem BioAssay (NCI)
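These data come from cells grown in 96-well plates and exposed to compound for 48 hours at five concentrations. TGI marks complete inhibition of growth.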

How the values were obtained:
Experiment in all cases: NCI-60 cell line screen, 48 h
786-0 renal = system: 786-0 renal
A498 renal = system: A498 renal
A549 NSCLC = system: A549 NSCLC
ACHN renal = system: ACHN renal
BT-549 breast = system: BT-549 breast
CAKI-1 renal = system: CAKI-1 renal
CCRF-CEM leukemia = system: CCRF-CEM leukemia
COLO 205 colon = system: COLO 205 colon
DU-145 prostate = system: DU-145 prostate
EKVX NSCLC = system: EKVX NSCLC
HCT-116 colon = system: HCT-116 colon
HCT-15 colon = system: HCT-15 colon
HL-60(TB) leukemia = system: HL-60(TB) leukemia
HOP-62 NSCLC = system: HOP-62 NSCLC
HOP-92 NSCLC = system: HOP-92 NSCLC
HS 578T breast = system: HS 578T breast
HT29 colon = system: HT29 colon
IGROV1 ovarian = system: IGROV1 ovarian
K-562 leukemia = system: K-562 leukemia
KM12 colon = system: KM12 colon
LOX IMVI melanoma = system: LOX IMVI melanoma
M14 melanoma = system: M14 melanoma
MALME-3M melanoma = system: MALME-3M melanoma
MCF7 breast = system: MCF7 breast
MDA-MB-231 breast = system: MDA-MB-231 breast
MDA-MB-435 = system: MDA-MB-435
MDA-N = system: MDA-N
MOLT-4 leukemia = system: MOLT-4 leukemia
NCI-H226 lung = system: NCI-H226 lung
NCI-H23 lung = system: NCI-H23 lung
NCI-H460 lung = system: NCI-H460 lung
NCI-H522 lung = system: NCI-H522 lung
NCI/ADR-RES ovarian = system: NCI/ADR-RES ovarian
OVCAR-3 ovarian = system: OVCAR-3 ovarian
OVCAR-4 ovarian = system: OVCAR-4 ovarian
OVCAR-5 ovarian = system: OVCAR-5 ovarian
OVCAR-8 ovarian = system: OVCAR-8 ovarian
PC-3 prostate = system: PC-3 prostate
RXF 393 renal = system: RXF 393 renal
SF-268 CNS = system: SF-268 CNS
SF-295 CNS = system: SF-295 CNS
SK-MEL-2 melanoma = system: SK-MEL-2 melanoma
SK-MEL-28 melanoma = system: SK-MEL-28 melanoma
SK-MEL-5 melanoma = system: SK-MEL-5 melanoma
SK-OV-3 ovarian = system: SK-OV-3 ovarian
SN12C renal = system: SN12C renal
SNB-19 CNS = system: SNB-19 CNS
SW-620 colon = system: SW-620 colon
T-47D breast = system: T-47D breast
TK-10 renal = system: TK-10 renal
U251 CNS = system: U251 CNS
UACC-257 melanoma = system: UACC-257 melanoma
UACC-62 melanoma = system: UACC-62 melanoma
UO-31 renal = system: UO-31 renal
HCC-2998 colon = system: HCC-2998 colon
RPMI-8226 leukemia = system: RPMI-8226 leukemia
SF-539 CNS = system: SF-539 CNS
SNB-75 CNS = system: SNB-75 CNS
SR leukemia = system: SR leukemia

C#C[C@]1(O)CC[C@H]2[C@@H]3CCC4=CC(=NCCOC(=O)c5cccc6c(=O)c7ccccc7[nH]c56)CC[C@@H]4[C@H]3CC[C@@]21C
TGI (786-0 renal): > 100 µM
TGI (A498 renal): > 100 µM
TGI (A549 NSCLC): > 100 µM
TGI (ACHN renal): > 100 µM
TGI (BT-549 breast): > 100 µM
TGI (CAKI-1 renal): > 100 µM
TGI (CCRF-CEM leukemia): > 100 µM
TGI (COLO 205 colon): > 100 µM
TGI (DU-145 prostate): > 100 µM
TGI (EKVX NSCLC): > 100 µM
TGI (HCT-116 colon): > 100 µM
TGI (HCT-15 colon): > 100 µM
TGI (HL-60(TB) leukemia): > 100 µM
TGI (HOP-62 NSCLC): > 100 µM
TGI (HOP-92 NSCLC): 89.6 µM
TGI (HS 578T breast): > 100 µM
TGI (HT29 colon): > 100 µM
TGI (IGROV1 ovarian): > 100 µM
TGI (K-562 leukemia): > 100 µM
TGI (KM12 colon): > 100 µM
TGI (LOX IMVI melanoma): 84 µM
TGI (M14 melanoma): > 100 µM
TGI (MALME-3M melanoma): 91.1 µM
TGI (MCF7 breast): > 100 µM
TGI (MDA-MB-231 breast): 72.6 µM
TGI (MDA-MB-435): > 100 µM
TGI (MDA-N): > 100 µM
TGI (MOLT-4 leukemia): > 100 µM
TGI (NCI-H226 lung): > 100 µM
TGI (NCI-H23 lung): > 100 µM
TGI (NCI-H460 lung): > 100 µM
TGI (NCI-H522 lung): > 100 µM
TGI (NCI/ADR-RES ovarian): > 100 µM
TGI (OVCAR-3 ovarian): > 100 µM
TGI (OVCAR-4 ovarian): > 100 µM
TGI (OVCAR-5 ovarian): > 100 µM
TGI (OVCAR-8 ovarian): 48.9 µM
TGI (PC-3 prostate): 55 µM
TGI (RXF 393 renal): 43.2 µM
TGI (SF-268 CNS): > 100 µM
TGI (SF-295 CNS): > 100 µM
TGI (SK-MEL-2 melanoma): 95.6 µM
TGI (SK-MEL-28 melanoma): > 100 µM
TGI (SK-MEL-5 melanoma): > 100 µM
TGI (SK-OV-3 ovarian): > 100 µM
TGI (SN12C renal): > 100 µM
TGI (SNB-19 CNS): > 100 µM
TGI (SW-620 colon): > 100 µM
TGI (T-47D breast): 78.1 µM
TGI (TK-10 renal): > 100 µM
TGI (U251 CNS): 51.4 µM
TGI (UACC-257 melanoma): > 100 µM
TGI (UACC-62 melanoma): > 100 µM
TGI (UO-31 renal): > 100 µM

C#C[C@]1(O)CC[C@H]2[C@@H]3CCC4=CC(=NCCOC(=O)c5cccc6cc7ccccc7nc56)CC[C@@H]4[C@H]3CC[C@@]21C
TGI (786-0 renal): > 100 µM
TGI (A498 renal): > 100 µM
TGI (A549 NSCLC): > 100 µM
TGI (ACHN renal): > 100 µM
TGI (BT-549 breast): 74.2 µM
TGI (CAKI-1 renal): > 100 µM
TGI (CCRF-CEM leukemia): > 100 µM
TGI (COLO 205 colon): > 100 µM
TGI (DU-145 prostate): > 100 µM
TGI (EKVX NSCLC): > 100 µM
TGI (HCT-116 colon): > 100 µM
TGI (HCT-15 colon): 43.1 µM
TGI (HL-60(TB) leukemia): > 100 µM
TGI (HOP-62 NSCLC): > 100 µM
TGI (HOP-92 NSCLC): 48.6 µM
TGI (HS 578T breast): 63.8 µM
TGI (HT29 colon): > 100 µM
TGI (IGROV1 ovarian): 30.8 µM
TGI (K-562 leukemia): > 100 µM
TGI (KM12 colon): 97.2 µM
TGI (LOX IMVI melanoma): 24.8 µM
TGI (M14 melanoma): 61.3 µM
TGI (MALME-3M melanoma): 74.4 µM
TGI (MCF7 breast): 69.4 µM
TGI (MDA-MB-231 breast): 44.8 µM
TGI (MDA-MB-435): > 100 µM
TGI (MDA-N): > 100 µM
TGI (MOLT-4 leukemia): > 100 µM
TGI (NCI-H226 lung): > 100 µM
TGI (NCI-H23 lung): 62.5 µM
TGI (NCI-H460 lung): 35.8 µM
TGI (NCI-H522 lung): 45.6 µM
TGI (NCI/ADR-RES ovarian): 81.3 µM
TGI (OVCAR-3 ovarian): > 100 µM
TGI (OVCAR-4 ovarian): > 100 µM
TGI (OVCAR-5 ovarian): > 100 µM
TGI (OVCAR-8 ovarian): 21.9 µM
TGI (PC-3 prostate): 34.9 µM
TGI (RXF 393 renal): 28.3 µM
TGI (SF-268 CNS): 72.3 µM
TGI (SF-295 CNS): 67.6 µM
TGI (SK-MEL-2 melanoma): 53.9 µM
TGI (SK-MEL-28 melanoma): > 100 µM
TGI (SK-MEL-5 melanoma): > 100 µM
TGI (SK-OV-3 ovarian): > 100 µM
TGI (SN12C renal): > 100 µM
TGI (SNB-19 CNS): > 100 µM
TGI (SW-620 colon): > 100 µM
TGI (T-47D breast): 75.9 µM
TGI (TK-10 renal): > 100 µM
TGI (U251 CNS): 25.2 µM
TGI (UACC-257 melanoma): > 100 µM
TGI (UACC-62 melanoma): 96.1 µM
TGI (UO-31 renal): > 100 µM

CC(=O)OC1CC2(C)C(OC(C)=O)CC1C2(C)C (stereo not drawn)
TGI (786-0 renal): > 100 µM
TGI (A549 NSCLC): > 100 µM
TGI (ACHN renal): > 100 µM
TGI (BT-549 breast): > 100 µM
TGI (CCRF-CEM leukemia): > 100 µM
TGI (COLO 205 colon): > 100 µM
TGI (DU-145 prostate): > 100 µM
TGI (HCC-2998 colon): > 100 µM
TGI (HCT-116 colon): > 100 µM
TGI (HCT-15 colon): > 100 µM
TGI (HL-60(TB) leukemia): > 100 µM
TGI (HOP-62 NSCLC): > 100 µM
TGI (HOP-92 NSCLC): > 100 µM
TGI (HS 578T breast): > 100 µM
TGI (HT29 colon): > 100 µM
TGI (IGROV1 ovarian): > 100 µM
TGI (K-562 leukemia): > 100 µM
TGI (KM12 colon): > 100 µM
TGI (LOX IMVI melanoma): > 100 µM
TGI (M14 melanoma): > 100 µM
TGI (MALME-3M melanoma): > 100 µM
TGI (MCF7 breast): > 100 µM
TGI (MDA-MB-231 breast): > 100 µM
TGI (MDA-MB-435): > 100 µM
TGI (MDA-N): > 100 µM
TGI (MOLT-4 leukemia): > 100 µM
TGI (NCI-H226 lung): > 100 µM
TGI (NCI-H23 lung): > 100 µM
TGI (NCI-H460 lung): > 100 µM
TGI (NCI-H522 lung): > 100 µM
TGI (NCI/ADR-RES ovarian): > 100 µM
TGI (OVCAR-3 ovarian): > 100 µM
TGI (OVCAR-4 ovarian): > 100 µM
TGI (OVCAR-5 ovarian): > 100 µM
TGI (OVCAR-8 ovarian): > 100 µM
TGI (PC-3 prostate): > 100 µM
TGI (RPMI-8226 leukemia): > 100 µM
TGI (RXF 393 renal): > 100 µM
TGI (SF-268 CNS): > 100 µM
TGI (SF-295 CNS): > 100 µM
TGI (SF-539 CNS): > 100 µM
TGI (SK-MEL-28 melanoma): > 100 µM
TGI (SK-MEL-5 melanoma): > 100 µM
TGI (SK-OV-3 ovarian): > 100 µM
TGI (SN12C renal): > 100 µM
TGI (SNB-19 CNS): > 100 µM
TGI (SNB-75 CNS): > 100 µM
TGI (SR leukemia): > 100 µM
TGI (SW-620 colon): > 100 µM
TGI (T-47D breast): > 100 µM
TGI (TK-10 renal): > 100 µM
TGI (U251 CNS): > 100 µM
TGI (UACC-257 melanoma): > 100 µM
TGI (UACC-62 melanoma): > 100 µM
TGI (UO-31 renal): > 100 µM
